From patent US12528846B2, “BH4 stabilized peptides and uses thereof” (Dana-Farber Cancer Institute, Inc., priority 2013, dated 2026)
Entries after “also recorded” stand apart in the source; their conditions may differ. Positions of bridges follow the written chain, without caps; N, C: chain ends. Non-standard residues stand in square brackets, D forms with d. Residues, ends and D or L forms follow the SMILES beside them. S5 = C=CCCC[C@](C)(N)C(=O)O; Nle = CCCC[C@H](N)C(=O)O

What was measured:
Recombinant BAX [1] = target: T1, Recombinant BAX (Homo sapiens, UniProt Q07812); assay: HXMS of BH4 SAHBs after pre-equilibration with recombinant BAX protein; type: binding; conditions: 15-minute pre-equilibration, 1:2 BAX protein to BH4 SAHB molar ratio
T1 construct: made in house
T1 sequence (Q07812 whole entry): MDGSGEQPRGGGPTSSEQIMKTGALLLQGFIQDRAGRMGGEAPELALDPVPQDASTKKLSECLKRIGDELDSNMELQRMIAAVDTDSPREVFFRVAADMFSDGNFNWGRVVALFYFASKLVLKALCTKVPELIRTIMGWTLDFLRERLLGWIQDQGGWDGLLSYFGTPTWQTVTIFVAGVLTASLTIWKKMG
Method: (§1) The structural stability of the BCL-2 BH4 staple-scan panel of SAHBs was determined by hydrogen/deuterium mass spectrometry (HXMS). In these experiments, the BH4 SAHBs were labeled with deuterium for 2 seconds, 5 seconds, 10 seconds, 1 minute, 10 minutes, and 1 hour, followed by quenching with cold phosphate buffer (pH 2.5), and then immediately subjected to desalting and injection on a LCT Premier Mass Spectrometer (Waters Corporation). The relative uptake of deuterium was determined for each BH4 SAHB by dividing the mass of the corresponding undeuterated control. Labeling was performed with the BH4 SAHB peptide alone and following a 15-minute pre-equilibration with recombinant BAX protein (purified as previously described in Walensky et al. (Mol. Cell 24:199-210, 2006) and Gavathiotis et al. (Nature 455:1076-1081, 2008)) at a 1:2 BAX protein to BH4 SAHB peptide molar ratio.

Recombinant BAX [2] = target: T1, Recombinant BAX; assay: HXMS of recombinant BAX with or without BCL-2 BH4 SAHBA; type: binding; conditions: two molar excess of peptide, 10 seconds to 2 hours
Method: In additional studies, recombinant BAX protein was labeled with deuterium in the presence or absence of a two molar access of BCL-2 BH4 SAHBA for 10 seconds, 1 minute, 10 minutes, and 2 hours. Following the corresponding incubation period in D20 buffer, each sample was quenched with ice-cold phosphate buffer (pH 2.5) and injected on a custom Waters NanoACQUITY UPLC HDX Manager for analysis as described in Wales et al. (Anal. Chem. 80:6815-6820, 2008). Mass spectra were obtained with a Synapt G2 mass spectrometer (Waters Corporation) and analyzed with the DynamX software package (Waters Corporation). The data shown in FIG. 15A are the average of two duplicate experiments, where the relative difference (Da) shown for each peptide is equivalent to the relative deuterium uptake of the corresponding peptide in the BAX alone control minus the relative deuterium uptake of the peptide in the BCL-2 BH4 SAHBA-bound BAX sample. A significant relative difference is established as 0.4 Da. […] A significant relative difference in uptake is observed in the region of BAX al and the loop between α1 and α2, indicative of structural stabilization of this region of BAX protein as a result of BCL-2 BH4 SAHBA binding.

Recombinant BAX [3] = target: T1, Recombinant BAX; assay: Liposomal ANTS/DPX release, heat-induced BAX activation; type: biochemical; conditions: 500 nM BAX, liposomes, 37° C.
Recombinant BAX [4] = target: T1, Recombinant BAX; assay: Liposomal ANTS/DPX release, BIM SAHBA-triggered BAX activation; type: biochemical; conditions: 1.5 μM BIM SAHBA, 0.75 μM BAX, variety of peptide concentrations
Method: In these experiments, the BCL-2 BH4 SAHBA and unmodified BCL-2 BH4 peptide were incubated with 1.5 μM BIM SAHBA (Gavathiotis et al., Nature 455:1076-1081, 2008), 0.75 μM recombinant BAX protein, and 5 μL liposomes loaded with the ANTS and DPX (described above) at a variety of different concentrations.
A complete panel of BCL-2 BH4 SAHBA alanine and glutamine point mutants (0.75 μM) were screened for inhibition of BIM SAHBA (0.75 μM)-triggered BAX activation (0.75 μM) using the liposome release assay described above. The data were normalized to a 100% percent positive control level of liposome release achieved using BIM SAHBA and BAX alone, after correction for any intrinsic fluorescence detected for each FITC-labeled BCL-2 BH4 SAHB (0%). […] The alanine scanning data are also useful for designing the placement of staples in the BCL-2 BH4 peptides.

Recombinant BAX [5] = target: T1, Recombinant BAX; assay: BAX 6A7 immunoprecipitation (N-terminal conformational activation); type: biochemical; conditions: 1 μM BAX, liposomes, 1 μM BIM SAHB, peptide 0-2.0 μM, 30 min
Method: An additional experiment was performed to determine whether BCL-2 BH4 SAHB binding would be capable of preventing the N-terminal unfolding characteristic of activated BAX. In this experiment, recombinant BAX was incubated with liposomes and a molar equivalent of BIM SAHB in the presence of increasing amounts of BCL-2 BH4 SAHBA or BCL-2 BH4 SAHBA L23A. After a 30 min pre-incubation period to allow for activation to proceed, the liposomal mixtures were subjected to immunoprecipitation with the BAX 6A7 antibody (Santa Cruz), which specifically recognizes the N-terminal epitope on BAX (residues 12-24) that is exposed during activation (Hsu et al., 1997). Immunoprecipitated protein was resolved by electrophoresis and immunoblotted with an antibody specific for BAX. […] Importantly, the L23A mutant version of the BH4 peptide, which was shown in the liposomal release assay to disrupt its inhibitory activity, had no effect on BAX 6A7 reactivity. The BAX 6A7 immunoprecipitation was carried out as follows. Recombinant BAX (1 μM) was mixed with liposomes and 1 μM BIM SAHB in the presence of increasing doses of BCL-2 BH4 SAHBA or BCL-2 BH4 SAHBA L23A (0 μM, 0.25 μM, 0.5 μM, 1.0 μM, and 2.0 μM). Following a 30 min incubation at room temperature, the mixture was immunoprecipitated with a-BAX 6A7 (Santa Cruz) and resolved by electrophoresis. […]

Recombinant BAX [6] = target: T1, Recombinant BAX; assay: HXMS of recombinant BAX with liposomes, BIM SAHB with or without BCL-2 BH4 SAHBA; type: biochemical; conditions: molar equivalent of BIM SAHB plus two molar excess of peptide
Method: Recombinant BAX protein was pre-equilibrated for 15 min with liposomes in the presence or absence of a molar equivalent of BIM SAHB (FIG. 15B) or a molar equivalent of BIM SAHB and a two molar excess of BCL-2 BH4 SAHBA (FIG. 15C), and then labeled with deuterium for 10 seconds, 1 minute, 10 minutes, and 2 hours. Following the corresponding incubation period in D20 buffer, each sample was quenched with ice-cold guanidine chloride buffer (pH 2.6) and then subjected to proteolysis on ice for 5 minutes. The samples were next injected on a custom Waters NanoACQUITY UPLC HDX Manager for analysis as described above. Mass spectra were obtained with a Synapt G2 mass spectrometer (Waters Corporation) and analyzed with the DynamX software package (Waters Corporation). The data shown in FIG. 15B are the duplicate of two experiments, where the relative difference (Da) shown for each BAX peptide fragment is equivalent to the relative deuterium uptake of the peptide in the BIM SAHB-activated BAX sample minus the relative deuterium uptake of the corresponding peptide in the BAX alone control. […] Mass spectra were obtained with a Synapt G2 mass spectrometer (Waters Corporation) and analyzed with the DynamX software package (Waters Corporation). […]

[7] = Hydrogen/deuterium mass spectrometry (HXMS) of BH4 SAHB peptide alone (structural stability); type: physicochemical; conditions: deuterium labeling 2 seconds to 1 hour
Method: as §1

endogenous BAX = target: T2, endogenous BAX (Homo sapiens, UniProt Q07812); assay: Streptavidin pull-down of biotinylated SAHB from HeLa cell lysates; type: binding; conditions: 20 μM biotinylated peptide, 16 hrs at 4° C.
T2 construct: endogenous in cells; host or cells: HeLa
T2 sequence (Q07812 whole entry): as above
Method: HeLa cell lysates (0.5 mg) were incubated with vehicle (DMSO), biotinylated BCL-2 BH4 SAHBA (20 μM), or BCL-2 BH4 SAHBA L23A (20 μM) for 16 hrs at 4° C. prior to addition of high-capacity streptavidin agarose resin (Thermo Scientific). After three successive washes, associated protein was eluted from the resin into LDS sample buffer and analyzed by Western blot with the anti-BAX N20 antibody (Santa Cruz). […] The immunoblot in FIG. 19B is representative of three independent experiments.

[8] = test system: BAX-overexpressing HeLa cells; assay: Viability of transfected HeLa cells treated with staurosporine (CellTiter-Glo); type: cell-based; conditions: 325 nM staurosporine, 24-hour treatment
Method: Viability of the transfected cells subjected to 24-hour treatment with 325 nM staurosporine or no treatment with staurosporine was determined by addition of CellTiter-Glo reagent (Promega). The data shown in FIG. 20A are representative of three independent experiments.
This BCL-2-based rescue is negated upon co-expression of BAX with the L23A mutant form of BCL-2 (FIG. 20A).

| deuterium uptake of BH4 SAHB upon addition of recombinant BAX protein (Recombinant BAX [1]) | deuterium uptake by BAX protein upon peptide engagement (Recombinant BAX [2]) | heat-induced activation of BAX and BAX-mediated poration (Recombinant BAX [3]) | relative deuterium uptake of BH4 SAHB peptide alone [7] | pull-down of BAX from HeLa cell lysates (endogenous BAX) | pull-down of BAX from HeLa cell lysates (endogenous BAX; listed as biotinylated-BCL-2 BH4 SAHBA) | SMILES | BAX activation in response to BIM SAHBA treatment (liposomal poration) (Recombinant BAX [4]) | BAX 6A7 reactivity (BIM SAHB-triggered BAX activation) (Recombinant BAX [5]) | differences in relative uptake of BIM SAHB-treated BAX compared to BAX alone (Recombinant BAX [6]) | apoptosis of transfected HeLa cells [8] |
| --- | --- | --- | --- | --- | --- | --- | --- | --- | --- | --- |
| reduced uptake | decrease in deuterium uptake | dose-responsively decreased | markedly reduced uptake | specifically interacted | specifically immunoprecipitated | CCCC[C@H](NC(=O)[C@@H](NC(=O)[C@@H](NC(=O)[C@H](CCC(=O)O)NC(C)=O)[C@@H](C)CC)C(C)C)C(=O)N[C@@H](CCCCN)C(=O)N[C@@H](Cc1ccc(O)cc1)C(=O)N[C@H](C(=O)N[C@@H](Cc1c[nH]cn1)C(=O)N[C@@H](Cc1ccc(O)cc1)C(=O)N[C@@H](CCCCN)C(=O)N[C@@H](CC(C)C)C(=O)N[C@@H](CO)C(=O)N[C@@]1(C)CCCC=CCCC[C@@](C)(C(=O)N[C@@H](Cc2c[nH]c3ccccc23)C(=O)N[C@@H](CC(=O)O)C(=O)N[C@@H](C)C(N)=O)NC(=O)[C@H](Cc2ccc(O)cc2)NC(=O)CNC(=O)[C@H](CCCNC(=N)N)NC1=O)[C@@H](C)CC [BCL-2 BH4 SAHBA] (Ac-EIV[Nle]KYIHYKLS[S5]RGY[S5]WDA-NH2; staple 13-17; N-terminus and C-terminus assumed) | dose-responsively decreased; also recorded: dose-responsively blocks | dose-responsively reduces; also recorded: dose-responsively inhibited | complete suppression; also recorded: can block the changes in BAX conformation | – |
| – | – | – | – | – | – | CN[C@@H]1C[C@H]2O[C@@](C)([C@@H]1OC)n1c3ccccc3c3c4c(c5c6ccccc6n2c5c31)C(=O)NC4 [staurosporine] | – | – | – | induces apoptosis |
